# Results as given in patent publication EP0526840B1, “Condensed naphthyridine derivatives” (KYOWA HAKKO KOGYO CO., LTD., priority 1991, dated 1993).
# Tests used:
# PAF-induced mortality = experiment: Inhibition effect on platelet activating factor (PAF)-induced mortality; format: in vivo, dd mice; details: Mus musculus, po, 2 h, minimum effective dose, orally, one hour before 40 µg/kg PAF intravenously, mortality two hours after PAF, read-out: Inhibition of PAF-induced mortality MED
# Description: The experiment was performed by a minor modification of method of Carlson et al. [Agents and Actions, 21, 379 (1987)]. Groups each consisting of 10 male dd mice (weighing 28 to 32 g) were used, and 100 mg/kg of test compound or a saline (control) was orally administered. One hour after the administration of the test compound, 40 µg/kg of PAF (manufactured by Avanti Polar Lipids Co., Ltd.) were intravenously administered. Two hours after PAF injection, the mortality rate of the animals was observed. […]
# Acute toxicity test = format: in vivo, dd-strain mice; details: orally administered; mortality observed for seven days
# Description: Male dd-strain mice weighing 20 -25 g, groups each consisting of 3 animals, were used, and Compound 1 and Compound 3 were orally administered. MLD was determined by observing the mortality for seven days after the administration. MLD of both compounds were over 300 mg/kg.
# hair growth = experiment: Hair growth stimulation; format: in vivo, C3H/HeSlc-strain mice; details: 16th day; applied once a day in ethanol : propyleneglycol (6 : 4); Compound 1 at 0.14 %, Compound 3 at 1.00 % (Table 4)
# Source text: Effect of test compound on hair growth in mice was examined. Hair on the back of male C3H/HeSlc-strain mice aged 9 weeks, which was in the telogen of hair cycle was clipped off by an electric hair-clipper. The test compound dissolved in a solvent mixture [ethanol : propyleneglycol (6 : 4)] was uniformly applied to the hair removed area of the mice once a day. The group which received the solvent mixture alone was used as control.
# Hair growth stimulation was estimated by measuring the ratio of the hair growing area to the test compound treated area by photograph. In the group having received the test comound, darkening of intraderma (indicating the formation of hair follicles) was observed on the 10th day, and then hair growth rapidly progressed.
# In contrast, on the 16th day of the control group, darkening of intraderma was observed only in the part of the solvent treated area and hair growth scarcely occurred. […]
# spleen cells = experiment: Plaque forming cell assay (inhibition of antibody production); format: cell-based, Balb/c strain mice; details: Mus musculus, 120 h, inhibition of antibody production (PFC count), incubated 5 days, read-out: Inhibition rate (%); for inhibition at 10 µM: 10^-5M; for inhibition at 1 µM: 10^-6M
# Description: The plaque forming cell assay was performed by the following manner with reference to the method of Jerne [Science, 140, 405, (1963)] and the method of Yamamoto et al. [Drugs Exptl. Clin. Res., 8, 5, (1982)].
# Male Balb/c strain mice (aged 7 weeks, SLC) were sensitized with 1 x 10^8 sheep red blood cells (Bio Test Research Institute), and 6 or 7 days after the sensitization, the spleen was extirpated. The cells obtained from the spleen were treated with ACT solution (tris-ammonium chloride isotonic buffer) to remove red blood cells. The cells were washed three times with an RPMI-1640 medium (Nissui Pharmaceutical Co., Ltd.). The spleen cells (1 x 10^7 cells), the test compound dissolved in dimethyl sulfoxide and sheep blood red cells (5 x 10^6) were suspended in an RPMI-1640 medium containing 10% bovine serum (Gibco Company), 2-mercaptoethanol (5 x 10^-5M), 50 µg/ml of streptomycin and 50 IU/ml of penicillin. The suspension was distributed into a microculture plate (NUNC Co., Ltd., 24 holes), and incubated for 5 days in a carbon dioxide gas incubator at 37°C.
# After the termination of the incubation, the cells were transferred to a plastic test tube. The supernatant was removed by centrifugal separation (2000 rpm), and the pellet was re-suspended in 1 ml of an RPMI-1640 culture medium. The cell suspension, sheep blood red cells, and guinea pig complement (Cedarlene Institute) were incubated by the method of Cunningham [Immunology, 14, 599, (1968)], at 37°C for 1 to 2 hours. The appearing direct plaque cells (PFC count) in suspension were counted. From the resulting PFC count, the inhibition rate of the antibody production of the test compound was determined by the following formula. Inhibition rate (%) =(A - B)/(A)x 100 [formula] A : PFC count in the absence of test compound (dimethylsulfoxide alone) B : PFC count in the presence of test compound
# tracheae = experiment: Passive Schultz-Dale (S-D) reaction, relaxation of antigen-contracted tracheal strips; set-up: species or system Hartley guinea pigs; details: Cavia porcellus; concentration of 50% relaxation rate; passively sensitized guinea pig tracheal strips contracted with egg white albumin 1 µg/ml
# Description: Male Hartley guinea pigs weighing 350 to 500 g were passively sensitized by intraperitoneal injection of rabbit anti-OA serum prepared in advance by the method of Koda et al. [Folia Pharmacol., Japon 66, 237, (1970)]. After 24 hours, the guinea pigs were stunned and exsanguinated, and then tracheae were removed. The zig-zag strips of the tracheae were prepared by the method of Emmerson and Mackay [J. Pharm. Pharmacol., 31, 798, (1979)]. The strips were suspended in Krebs-Henseleit solution at 37°C under aeration of a mixed gas of 95% oxygen and 5% carbon dioxide, and equilibrated for one hour. Then, antigen (egg white albumin) was introduced in the solution (final concentration; 1 µg/ml), and the contraction was measured by isotonictransducer (TD-112s, Nihon Kohden Co., Ltd.) and recorded on a recorder (Type 3066, Yokogawa-Hokushin Denki, Co., Ltd.). After the contraction curves reached a plateau, the test compounds were successively added in order to get cumulative concentration-relaxation curves. The concentration of 50% relaxation rate (IC50) was calculated from the regression line, which was obtained from the cumulative concentration-relaxation curves.
SMILES,minimal effective dose (PAF-induced mortality) [mg/kg],MLD (Acute toxicity test),Hair growing area (%) Mean ± S.D. (hair growth) [%],inhibition at 10 µM (spleen cells) [%],inhibition at 1 µM (spleen cells) [%],IC50 (tracheae) [nM]
"O=c1c2c(-c3ccccc3)n[nH]c2c2cccnc2n1-c1ccccc1 [Compound 1, 3,5-Diphenyl-1H-pyrazolo[4,3-c][1,8]naphthyridin-4(5H)-one]",10,over 300 mg/kg,91.5 ± 8.0,85.8,77.2,3150
"Nc1c2c(=O)n(-c3ccccc3)c3ncccc3c2nn1-c1ccccc1 [Compound 7, 3-Amino-2,5-diphenyl-2H-pyrazolo[4,3-c][1,8]naphtyyridin-4(5H)-one]",,,,83.8,,
"O=c1c2c(-c3cccs3)n[nH]c2c2cccnc2n1-c1ccccc1 [Compound 10, 5-Phenyl-3-thienyl-1H-pyrazolo[4,3-c][1,8]naphthyridin-4(5H)-one]",,,,83.9,57.1,708
"Cn1nc(N)c2c(=O)n(-c3ccccc3)c3ncccc3c21 [Compound 6, 3-Amino-1-methyl-5-phenyl-1H-pyrazolo[4,3-c][1,8]naphthyridin-4(5H)-one]",,,,76.5,,
"Cc1n[nH]c2c1c(=O)n(-c1ccccc1)c1ncccc21 [Compound 2, 3-Methyl-5-phenyl-1H-pyrazolo[4,3-c][1,8]naphthyridin-4(5H)-one]",,,,92.4,85.8,
"COc1ccc(-c2n[nH]c3c2c(=O)n(-c2ccccc2)c2ncccc32)cc1 [Compound 11, 3-(4-methoxyphenyl)-5-phenyl-1H-pyrazolo[4,3-c][1,8]naphthyridin-4(5H)-one]",,,,99.5,26.5,
"Cc1nn(C)c2c1c(=O)n(-c1ccccc1)c1ncccc21 [Compound 4, 1,3-Dimethyl-5-phenyl-1H-pyrazo1o[4,3-c][1,8]naphthyridin-4(5H)-one]",,,,81.4,,
"CC(C)Cc1n[nH]c2c1c(=O)n(-c1ccccc1)c1ncccc21 [Compound 3, 3-Isobutyl-5-phenyl-1H-pyrazolo[4,3-c][1,8]naphthyridin-4(5H)-one]",5,over 300 mg/kg,91.8 ± 7.2,74.9,77.2,258
